{
  "source": "patent US20210349099A1",
  "about": "“CANCER BIOMARKERS AND METHODS OF USE THEREOF” (X4 Pharmaceuticals, Inc., priority 2017, published 2021)",
  "system": "melanoma tumor microenvironment (TME)",
  "assay": "Multiplex immunofluorescence (mIF) immunophenotyping of melanoma biopsies",
  "type": "in vivo, human",
  "conditions": "melanoma patient #5",
  "description": "(§1) Formalin-fixed paraffin-embedded (FFPE) tissue sections were baked for 1 hour at 60° C. The slides were dewaxed and stained on a Leica BOND Rx stainer (Leica, Buffalo Grove, Ill.) using Leica Bond reagents for dewaxing (Dewax Solution), antigen retrieval and antibody stripping (Epitope Retrieval Solution 2), and rinsing after each step (Bond Wash Solution). A high stringency wash was performed after the secondary and tertiary applications using high-salt TBST solution (0.05 M Tris, 0.3M NaCl, and 0.1% Tween-20, pH 7.2-7.6). OPAL Polymer HRP Mouse plus Rabbit (PerkinElmer, Hopkington, Mass.) was used for all secondary applications.\nAntigen retrieval and antibody stripping steps were performed at 100° C. with all other steps at ambient temperature. Endogenous peroxidase was blocked with 3% H2O2 for 8 minutes followed by protein blocking with TCT buffer (0.05 M Tris, 0.15 M NaCl, 0.25% Casein, 0.1% Tween 20, pH 7.6+/−0.1) for 30 minutes. The first primary antibody (position 1) was applied for 60 minutes followed by the secondary antibody application for 10 minutes and the application of the tertiary TSA-amplification reagent (PerkinElmer OPAL fluor) for 10 minutes. The primary and secondary antibodies were stripped with retrieval solution for 20 minutes before repeating the process with the second primary antibody (position 2) starting with a new application of 3% H2O2. The process was repeated until all 6 positions were completed; however, there was no stripping step after the 6th position. Slides were removed from the stainer and stained with Spectral DAPI (Perkin Elmer) for 5 minutes, rinsed for 5 minutes, and coverslipped with Prolong Gold Antifade reagent (Invitrogen/Life Technologies, Grand Island, N.Y.).\nSlides were cured for 24 hours at room temperature, then representative images from each slide were acquired on PerkinElmer Vectra 3.0 Automated Imaging System. Images were spectrally unmixed using PerkinElmer inForm software and exported as multi-image TIFF's for analysis in HALO software (Indica Labs, Corrales, N. Mex.).\nCellular analysis of the images were then analyzed with HALO image analysis software (Indica Labs, Cooales, N. Mex.). After the cells were visualized based on nuclear recognition (DAPI stain), the software measured fluorescence intensity of the estimated cytoplasmic areas of each cell. A mean intensity threshold above background was used to determine positivity for each fluorochrome within the cytoplasm, thereby, defining cells as either positive or negative for each marker. The positive cell data was then used to define colocalized populations and to perform nearest neighbor spatial analysis.\nFormalin-fixed paraffin-embedded melanoma samples were stained sequentially with a 6-component immunophenotyping antibody panel, including CD4, CD8, PD-1, PD-L1, macrophage cocktail (CD68+CD163), and FoxP3 (Tregs). DAPI was used as a nuclear counterstain. Antibodies were detected using HRP-catalyzed deposition of fluorescent tyramide substrates (Opal, Perkin-Elmer). Images were obtained using spectral imaging, autofluorescence subtraction and unmixing (Vectra 3.0, Perkin-Elmer), and analyzed using HALO™ image analysis software.\nas §1, with “Tumor samples obtained from melanoma patients were formalin-fixed and” for “Formalin-fixed”, “(FFPE) according to known procedures. FFPE” for “(FFPE)”, “OPAL Polymer HRP Mouse plus Rabbit (PerkinElmer, Hopkington, Mass.) was used for all secondary applications.” left out",
  "data": [
    {"smiles": "NCCCCN(Cc1nc2ccccc2[nH]1)[C@H]1CCCc2cccnc21", "note": "[X4P-001]", "values": [
      {"measurement": "percentage of CD4 positive cells in the TME", "result": "increased"},
      {"measurement": "percentage of CD8 positive cells in the TME", "result": "increased"},
      {"measurement": "percentage of PD-1 positive cells in the TME", "result": "increased"},
      {"measurement": "percentage of PDL-1 positive cells in the TME", "result": "increased"},
      {"measurement": "percentage of Treg (FoxP3+) cells", "result": "not altered"},
      {"measurement": "percentage of macrophages (CD68/CD163+)", "setting": "printed 24.1% vs. 25.4%, not altered", "result": 25.4, "unit": "%"}
    ]}
  ]
}
